Measured values as given in PMC5431342, “Discovery of an enzyme and substrate selective inhibitor of ADAM10 using an exosite-binding glycosylated substrate” (Scientific Reports, 2016).
Where two headings read alike, the source gives them in different places. Values belong to the molecule of their own block, whether it stands above or below them.

How the values were obtained:
ADAM10 [1] = target: T1, ADAM10 (Homo sapiens, UniProt O14672); assay: ADAM10 glycosylated substrate uHTS/HTS assay; type: biochemical
T1 construct: purchased R&D Systems 936-AD
T1 sequence (O14672 214-748): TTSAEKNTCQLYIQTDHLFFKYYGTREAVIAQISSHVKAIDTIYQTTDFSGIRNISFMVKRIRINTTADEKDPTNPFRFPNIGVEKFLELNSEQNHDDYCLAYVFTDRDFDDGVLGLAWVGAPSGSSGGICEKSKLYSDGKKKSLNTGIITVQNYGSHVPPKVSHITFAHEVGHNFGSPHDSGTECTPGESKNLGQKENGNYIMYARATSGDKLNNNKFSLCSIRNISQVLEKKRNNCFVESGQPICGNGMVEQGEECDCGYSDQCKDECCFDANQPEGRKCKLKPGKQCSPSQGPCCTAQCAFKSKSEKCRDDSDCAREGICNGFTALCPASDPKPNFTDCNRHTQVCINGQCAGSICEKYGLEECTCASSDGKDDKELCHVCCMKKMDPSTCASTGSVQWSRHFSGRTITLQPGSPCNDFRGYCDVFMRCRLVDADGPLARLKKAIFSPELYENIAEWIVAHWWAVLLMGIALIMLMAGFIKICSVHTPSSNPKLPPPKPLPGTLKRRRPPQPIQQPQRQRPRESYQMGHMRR
Protocol: To enable uHTS both ADAM10 and ADAM17 glycosylated substrate[13] (Fig. 1A) assays were miniaturized to 1536 well plate format. The workflow of the assays in 384 well plate format was recaptured in 1536 well plate format and assay volume was scaled down to 5 µL.
Both assays followed the same general protocol. […] Reactions were incubated at RT for 2 h, after which the fluorescence was measured using Perkin Elmer Viewlux multimode microplate imager (λexcitation = 360 nm, λemission = 460 nm). Final concentration of test compounds in assays was 7.0 µM.
(§1) The miniaturized 1536-well plate format ADAM10 and ADAM17 assays were used to screen a collection of ≈370,000 compounds (MLSMR library, provided by the NIH) on the automated Kalypsys/GNF platform at the Scripps Research Institute Molecular Screening Center (SRIMSC, Jupiter, FL. More details at http://hts.florida.scripps.edu/). […] Both uHTS campaigns were run separately but in a similar manner. Briefly, the first step was the primary screen of all MLSMR’s test compounds as singlicate against the ADAM10 or ADAM17 target at a final concentration of 7.0 μM. Next, compounds selected as primary hits were cherry-picked and retested in triplicate against the primary screen target and its anti-target (ADAM17 for the ADAM10 screening effort, and vice-versa) at the same final concentration of 7.0 μM. […] All data generated during this effort were uploaded to the SRIMSC’s institutional screening database (Assay Explorer, Symyx). Sample to background (S/B) ratios, as well as Z and Z′ values were calculated on a per-plate basis as described before. Curve fitting and resulting IC50 determinations were performed as previously reported.

ADAM17 [2] = target: T2, ADAM17 (Homo sapiens, UniProt P78536); assay: ADAM17 glycosylated substrate uHTS/HTS assay; type: biochemical; settings: for IC50: original uHTS dose response, 10-point 1:3 dilutions starting at 70 µM
T2 construct: purchased R&D Systems 930-ADB
T2 sequence (P78536 215-824): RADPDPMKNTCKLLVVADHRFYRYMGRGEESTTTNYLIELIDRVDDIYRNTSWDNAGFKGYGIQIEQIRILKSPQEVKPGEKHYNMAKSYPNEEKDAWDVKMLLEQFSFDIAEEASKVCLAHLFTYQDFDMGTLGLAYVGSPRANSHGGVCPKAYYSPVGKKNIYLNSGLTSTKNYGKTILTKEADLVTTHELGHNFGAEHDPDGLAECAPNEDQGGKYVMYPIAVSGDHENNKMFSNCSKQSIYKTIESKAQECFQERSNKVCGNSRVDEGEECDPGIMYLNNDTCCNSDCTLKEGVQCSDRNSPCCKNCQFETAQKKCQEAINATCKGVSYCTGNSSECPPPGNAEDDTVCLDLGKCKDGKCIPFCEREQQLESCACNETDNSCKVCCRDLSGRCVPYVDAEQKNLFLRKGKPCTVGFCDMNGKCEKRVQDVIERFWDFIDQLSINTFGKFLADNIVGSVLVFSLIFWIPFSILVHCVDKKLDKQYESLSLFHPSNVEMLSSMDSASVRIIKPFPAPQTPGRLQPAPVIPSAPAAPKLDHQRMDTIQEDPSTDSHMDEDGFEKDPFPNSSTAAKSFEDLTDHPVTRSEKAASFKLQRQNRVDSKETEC
Protocol: Both assays followed the same general protocol. […] After 30 min incubation at RT, the reactions were started by addition of 2.5 µL of 2x solutions of glycosylated substrate (20 µM). Reactions were incubated at RT for 2 h, after which the fluorescence was measured using Perkin Elmer Viewlux multimode microplate imager (λexcitation = 360 nm, λemission = 460 nm). Final concentration of test compounds in assays was 7.0 µM.
as §1

ADAM10 [3] = target: T1, ADAM10; settings: cited from earlier work
ADAM17 [4] = target: T2, ADAM17; settings: cited from earlier work
ADAM10 [5] = target: T1, ADAM10; assay: ADAM10 non-glycosylated substrate assay; type: biochemical; settings: ADAM10
Source text: Additionally, we synthesized a non-glycosylated version, E(Edans)-[…]-K(Dabcyl), to be used as a control in the follow-up studies.

ADAM10 [6] = target: T1, ADAM10; assay: Dual inhibition studies of ADAM10 with AHA and CID 3117694; type: biochemical
Protocol: 5 µL of 4X ADAM10 solution ([…]) were added to solid bottom black 384 low volume plates (Nunc, cat# 264705). […] 5 µL of 4X CID 3117694 were added to the wells containing AHA such that the final assay concentrations of CID 3117694 were 0.275, 0.55, 1.1, 2.2, and 4.4 µM. Enzyme-inhibitor mixtures were incubated for 1 h at RT after which 5 µL of 4X glycosylated substrate was added to all wells. Reactions were incubated at RT for 2 h, after which the fluorescence was measured using the Synergy H4 multimode microplate reader (λexcitation = 360 nm, λemission = 460 nm). IC50 values were calculated by fitting normalized data to sigmoidal log vs. response equation utilizing non-linear regression analysis from GraphPad Prizm 6.
Multi-drug combination dose-effect analysis using Compusyn software (ComboSyn, Inc. 599 Mill Run, Paramus, NJ, 07653, USA) was utilized to determine whether inhibitor combinations produced synergy, antagonism, or no effect as compared to a single inhibitor. Combination Index values were obtained using Combination Index (CI) Equation of Chou-Talalay[56] in Compusyn software (ComboSyn, Inc. 599 Mill Run, Paramus, NJ, 07653, USA) and a normalized isobologram was constructed: (D)1/(Dx)1+(D)2/(Dx)2=CI
In the denominators, (Dx)1 is the doses of Drug1 alone that inhibits x% while (Dx)2 is the dose of Drug2 alone that inhibits x%. […] Effect was determined according to the Table 1 (from ref. [57]).

[7] = tested on: shedding of CXCL16 in A549 cells; assay: CXCL16 shedding inhibition (ELISA); type: cell-based, human; settings: TNF/IFN stimulation 24 h
Protocol: (§2) A549 cells were seeded in 12-well plates and grown to confluency in DMEM supplemented with 10% FBS and 1% P/S. Subsequently, cells were starved serum-free for 4 h, incubated for 1 h with GI 254023X or CID 3117694 (concentrations as indicated) or DMSO (vehicle, 0.1%) and afterwards stimulated with 10 ng/mL TNF and 10 ng/mL IFN for 24 h or left untreated in the presence of inhibitors or DMSO. Supernatants (500 µL) were harvested and centrifuged for 10 min at 16100 g and 4 °C. […] of CXCL16 were measured using the DuoSet human CXCL16 Elisa Kit (R&D systems, Wiesbaden, Germany). Samples were stored at −80 °C and diluted 2-fold after careful thawing. The standard ranged from 0 to 25,000 pg/mL with a detection limit of 391 pg/mL. For detection of soluble syndecan-4, conditioned media (200 µL) were 2-fold diluted in blotting buffer (0.15 M NaCl buffered to pH 4.5 with 50 mM sodium acetate, and with 0.1% Triton X-100), and applied to cationic polyvinylidene difluoride-based membranes (Hybond-N, Amersham Biosciences, Freiburg, Germany) under vacuum in a dot blot apparatus (Amersham Biosciences). The membranes were blocked for 1 h with PBS-T supplemented with 1% bovine serum albumin and 3% milk powder. Human syndecan-4 was detected by incubating membranes overnight at 4 °C with mouse anti-syndecan-4 mAb (0.6 µg/mL) followed by incubation with POD-coupled goat anti-mouse Ab (27 ng/mL in PBS, Jackson Immunoresearch). Chemiluminescence was recorded and quantified using the luminescent image analyzer LAS3000 substrate after addition of ECL advanced substrate (Amersham Biosciences).

[8] = tested on: syndecan-4 shedding in A549 cells; assay: Syndecan-4 shedding inhibition (dot blot); type: cell-based, human; settings: TNF/IFN 24 h
Protocol: as §2, with “For detection of soluble syndecan-4, conditioned media (200 µL) were 2-fold diluted in blotting buffer (0.15 M NaCl buffered to pH 4.5 with 50 mM sodium acetate, and with 0.1% Triton X-100), and applied to cationic polyvinylidene difluoride-based membranes (Hybond-N, Amersham Biosciences, Freiburg, Germany) under vacuum in a dot blot apparatus (Amersham Biosciences). The membranes were blocked for 1 h with PBS-T supplemented with 1% bovine serum albumin and 3% milk powder.” left out

[9] = tested on: CCL2-induced migration of peripheral blood mononuclear cells (PBMC); assay: PBMC migration assay; type: cell-based
Protocol: (§3) For PBMC or primary human neutrophil chemotaxis assays, transwells with 8 or 5 µm pores were filled with 100 µL of cell suspension (1 × 10^6 cells in 100 µL DMEM + 0.2% BSA). Lower wells were filled with stimulus solution (3 nM CCL2 or 10 µg/mL CXCL8 (IL8) in assay buffer (RPMI + 0.2% BSA). After incubation of PBMCs for 2 h or neutrophils for 45 min, migrated cells were quantified in the lower well. For inhibitor studies, cells were pre-incubated in migration medium for 30 min and subsequently subjected to the migration experiment. Migrated neutrophils or PBMCs were quantified by measurement of endogenous glucuronidase activity as described.

[10] = tested on: IL-8-induced migration of primary human neutrophils; assay: Neutrophil migration assay; type: cell-based
Protocol: as §3

[11] = original uHTS dose response, 10-point 1:3 dilutions starting at 70 µM

Molecule: O=C(NO)[C@H]1C[C@H](OC(=O)N2CCCC2)CC[C@@H]1C(=O)N1CCC(c2ccccc2)CC1 [INCB8765]
IC50 (ADAM10 [3]): 0.097 µM
IC50 (ADAM17 [4]): 2.04 µM

Molecule: CC(=O)NO [AHA, acetohydroxamic acid]
IC50 (ADAM10 [6]; AHA alone, read-out: AHA IC50, ADAM10-mediated hydrolysis of glycosylated substrate): 1000 ± 50 µM
improvement in potency versus AHA alone (ADAM10 [6]; in the presence of 1.1 µM CID 31176944): 10 fold
improvement in potency versus AHA alone (ADAM10 [6]; in the presence of 4.4 µM CID 31176944): 100 fold

Molecule: CNC(=O)[C@@H](NC(=O)[C@H](CCCc1ccccc1)[C@H](C)N(O)C=O)C(C)(C)C [GI 254023X, reference compound]
inhibition of cytokine-inducible shedding of CXCL16 [7]: inhibited shedding
inhibition of syndecan-4 shedding [8]: inhibited shedding
inhibition of PBMC migration [9]: completely inhibited migration
inhibition of neutrophil migration [10]: completely inhibited migration
IC50 (ADAM10 [3]): 0.0053 µM
IC50 (ADAM17 [4]): 0.541 µM

B1: ADAM10 prodomain: Biozyme Inc.; competitive inhibitor of ADAM10 (protein)
chain: NPLNKYIRHYEGLSYNVDSLHQKHQRAKRAVSHEDQFLLLDFHAHGRQFNLRMKRDTSLFSDEFKVETSNKVLDYDTSHIYTGHIYGEEGSFSHGSVIDGRFEGFIKTRGGTFYIEPAERYIKDRILPFHSVIYHEDDINYPHKYGPQGGCADHSVFERMRKYQMTGVEEGARAHPEKHAASSGPELLRKK
modifications: tag omitted
IC50 (ADAM10 [3]): 0.048 µM
IC50 (ADAM17 [4]): > 10 µM

Other lines, results leading:

IC50 (ADAM10 [1]; [11]): > 70 µM
activity against ADAM17 of reordered powder versus original testing (ADAM17 [2]; reordered powder, 10-point 1:3 dilutions starting at 100 µM): significantly lower activity
Molecule: O=C(O)CCC(=O)c1c[nH]c2ccccc12 [CID 730037]

IC50 (ADAM10 [1]; 384 well plate format): 0.033 µM
IC50 (ADAM10 [1]; 1536 well plate format): 0.02 µM
potency for hydrolysis of glycosylated versus non-glycosylated substrate (ADAM10 [5]): same potency
Molecule: CNC(=O)[C@@H](NC(=O)[C@H](CC(C)C)[C@H](O)C(=O)NO)C(C)(C)C [marimastat, reference compound]

IC50 (ADAM10 [1]; [11]): > 70 µM
IC50 (ADAM17 [2]): 7.8 µM
Molecule: CCOc1ccc(NC(=O)CC2SC(=O)N(c3ccccc3)C2=O)cc1 (stereo not shown) [CID 3153587]

IC50 (ADAM10 [1]; [11]): 32 µM
IC50 (ADAM17 [2]): 3.2 µM
Molecule: O=C1NC(=O)C(Cc2ccc(Cl)cc2)(c2ccccc2)N1 (stereo not shown) [CID 236330]
